Consider 47 molecules from US20250101436A1, “APTAMERS AND SMALL MOLECULE LIGANDS” (MeiraGTx UK II Limited, priority 2021, published 2025).

The subject of one series is N5-12G6 riboswitch. Put plainly: Firefly luciferase assay, N5-12G6 riboswitch in HEK293 cells. To be noted: for regulation of luciferase expression (FIG. 4e): 12G6 riboswitch, HEK293; for fold induction at 25 µM / fold induction at 2 µM / fold induction at 3.3 µM: Homo sapiens; for fold induction at 25 µM: HEK293, read-out: Fold induction 25 μM (HEK), 12G6 riboswitch, luciferase, HEK293, 25 μM; for fold induction at 2 µM: HEK293, read-out: Fold induction 2 μM (HEK), 12G6 riboswitch, luciferase, HEK293, 2 μM; for fold induction at 3.3 µM: HEK293, read-out: Fold induction 3.3 μM (HEK), 12G6 riboswitch, luciferase, HEK293, 3.3 μM.

In series [1] the test system is luciferase gene expression in HEK 293 cells in response to Comp. 004. Put plainly: Screen of riboswitch constructs with 12C6-1 variant aptamers (libraries N1-N5) against Comp. 004, luciferase in HEK 293 cells. The class given is cell-based, human. To be noted: library N5 variant aptamers (L5, X16-X21 randomized) of 12C6-1 in riboswitch constructs; in response to Comp. 004 treatment; HEK 293 cells. Put shortly:
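Riboswitch constructs carrying 12C6-1 aptamer variants, randomized in J2-4, J2-3/J3-3a/J3a-2/P3, L3a, J4-5/J5-4/P4 or L5 regions (libraries N1-N5), cloned into an intron-exon-intron cassette driving luciferase. Screened in HEK 293 cells with 25 µM Comp. 004; read-out is fold induction of gene expression versus parent Luci-12C6-1.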

With `Fc1cc(CNc2cnccc2N2CCNCC2)cc2nccnc12` [compound 012, N-((8-Fluoroquinoxalin-6-yl)methyl)-4-(piperazin-1-yl)pyridin-3-amine], in the series on N5-12G6 riboswitch, the “regulation of luciferase expression (FIG. 4e)” value (“regulation” for short) was “regulate expression in a dose-dependent fashion” and the fold induction at 25 µM is 383.

In the case of `Clc1cc2nccnc2cc1CNc1cnccc1N1CCNCC1` [compound 013, N-((7-Chloroquinoxalin-6-yl)methyl)-4-(piperazin-1-yl)pyridin-3-amine], in the series on N5-12G6 riboswitch, the “regulation” value is reported as “regulate expression in a dose-dependent fashion” and the fold induction at 25 µM was 314. `c1cc(N2CCCNCC2)c(NCc2ccc3nccnc3c2)cn1` [compound 014, 4-(1,4-Diazepan-1-yl)-N-(quinoxalin-6-ylmethyl)pyridin-3-amine]: in the series with N5-12G6 riboswitch, the “regulation” value is listed as “regulate expression in a dose-dependent fashion” and the fold induction at 25 µM was 251.

On to `CC1CNCCN1c1ccncc1NCc1ccc2nccnc2c1` (stereo not drawn) [compound 015, 4-(2-Methylpiperazin-1-yl)-N-(quinoxalin-6-ylmethyl)pyridin-3-amine], for which, in the series on N5-12G6 riboswitch, the “regulation” value is on record as “regulate expression in a dose-dependent fashion” and the fold induction at 25 µM was determined as 329. In the same order, the values of `CC1CN(c2ccncc2NCc2ccc3nccnc3c2)CCN1` (stereo not drawn) [compound 016, 4-(3-Methylpiperazin-1-yl)-N-(quinoxalin-6-ylmethyl)pyridin-3-amine] are “regulate expression in a dose-dependent fashion” and 287. For `c1cc(C2CCNCC2)c(NCc2ccc3nccnc3c2)cn1` [compound 017, 4-(Piperidin-4-yl)-N-(quinoxalin-6-ylmethyl)pyridin-3-amine], in the series with N5-12G6 riboswitch, the fold induction at 25 µM is 130. For the molecule `c1cc(OC2CCNC2)c(NCc2ccc3nccnc3c2)cn1` (stereo not drawn) [compound 018, 4-(Pyrrolidin-3-yloxy)-N-(quinoxalin-6-ylmethyl)pyridin-3-amine], in the series on N5-12G6 riboswitch, the “regulation” value was “regulate expression in a dose-dependent fashion” and the fold induction at 25 µM is 286.

With `Clc1cncc(NCc2ccc3nccnc3c2)c1N1CCNCC1` [compound 019, 5-Chloro-4-(piperazin-1-yl)-N-(quinoxalin-6-ylmethyl)pyridin-3-amine], in the series on N5-12G6 riboswitch, the “regulation” value is listed as “regulate expression in a dose-dependent fashion”, the fold induction at 2 µM came to 60.2 and the fold induction at 25 µM is 453.

Consider `C[C@@H]1CNCCN1c1ccncc1NCc1ccc2nccnc2c1` [compound 020, (R)-4-(2-Methylpiperazin-1-yl)-N-(quinoxalin-6-ylmethyl)pyridin-3-amine], for which, in the series with N5-12G6 riboswitch, the fold induction at 2 µM was determined as 31.2 and the fold induction at 3.3 µM was determined as 52. Taken in the same sequence, the figures for `c1cc(O[C@@H]2CCNC2)c(NCc2ccc3nccnc3c2)cn1` [compound 021, (R)-4-(pyrrolidin-3-yloxy)-N-(quinoxalin-6-ylmethyl)pyridin-3-amine] were 68.4 and 62. As to `c1cc(OC2CNC2)c(NCc2ccc3nccnc3c2)cn1` [compound 022, 4-(Azetidin-3-yloxy)-N-(quinoxalin-6-ylmethyl)pyridin-3-amine], the fold induction at 2 µM with N5-12G6 riboswitch amounted to 43.2. On the same count and under the same terms, in the case of `Cc1cncc(NCc2ccc3nccnc3c2)c1N1CCNCC1` [compound 023, 5-Methyl-4-(piperazin-1-yl)-N-(quinoxalin-6-ylmethyl)pyridin-3-amine] it was 67.4; in that of `Fc1cc(N2CCNCC2)c(NCc2ccc3nccnc3c2)cn1` [compound 024, 6-Fluoro-4-(piperazin-1-yl)-N-(quinoxalin-6-ylmethyl)pyridin-3-amine], 35.1. Still for that read-out and setting: the result for `C[C@H]1CN(c2c(Cl)cncc2NCc2ccc3nccnc3c2)CCN1` [compound 025, (S)-5-Chloro-4-(3-methylpiperazin-1-yl)-N-(quinoxalin-6-ylmethyl)pyridin-3-amine] reads 42.6; that for `C[C@@H]1CNCCN1c1c(Cl)cncc1NCc1ccc2nccnc2c1` [compound 026, (R)-5-Chloro-4-(2-methylpiperazin-1-yl)-N-(quinoxalin-6-ylmethyl)pyridin-3-amine], 27.2. Still for that read-out and setting: in the case of `Clc1cncc(NCc2ccc3nccnc3c2)c1OC1CNC1` [compound 027, 4-(Azetidin-3-yloxy)-5-chloro-N-(quinoxalin-6-ylmethyl)pyridin-3-amine] it was 49.4.

Take `Fc1cc(CNc2cnccc2OC2CNC2)cc2nccnc12` [compound 028, 4-(Azetidin-3-yloxy)-N-((8-fluoroquinoxalin-6-yl)methyl)pyridin-3-amine]: in the series with N5-12G6 riboswitch, the fold induction at 2 µM is 33. Still for that read-out and setting: in the case of `Clc1cc2nccnc2cc1CNc1cnccc1OC1CNC1` [compound 029, 4-(Azetidin-3-yloxy)-N-((7-chloroquinoxalin-6-yl)methyl)pyridin-3-amine] it was 41.3. For the molecule `c1cc(N2CC3CC2CN3)c(NCc2ccc3nccnc3c2)cn1` (stereo not drawn) [compound 030, 4-(2,5-diazabicyclo[2.2.1]heptan-2-yl)-N-(quinoxalin-6-ylmethyl)pyridin-3-amine], in the series on N5-12G6 riboswitch, the fold induction at 25 µM came out at 82.9. Still for that read-out and setting: in the case of `c1cc(N2C3CNCC2C3)c(NCc2ccc3nccnc3c2)cn1` [compound 031, 4-(3,6-diazabicyclo[3.1.1]heptan-6-yl)-N-(quinoxalin-6-ylmethyl)pyridin-3-amine] it was 17.9; in that of `c1cc(N2CC3CNCC3C2)c(NCc2ccc3nccnc3c2)cn1` (stereo not drawn) [compound 032, 4-(hexahydropyrrolo[3,4-c]pyrrol-2(1H)-yl)-N-(quinoxalin-6-ylmethyl)pyridin-3-amine], 69.4; in that of `NC1CCN(c2ccncc2NCc2ccc3nccnc3c2)CC1` [compound 033, 4-(4-aminopiperidin-1-yl)-N-(quinoxalin-6-ylmethyl)pyridin-3-amine], 7.8.

Regarding `c1cc(NC2CCNCC2)c(NCc2ccc3nccnc3c2)cn1` [compound 034, N^4-(piperidin-4-yl)-N^3-(quinoxalin-6-ylmethyl)pyridine-3,4-diamine], the fold induction at 25 µM with N5-12G6 riboswitch was found to be 53.2. For “N5_11D10 (CTGGGGAGTCCT; chemistry not given here)”, in series [1], the “Fold (induction of luciferase gene expression)” value is given as 1719.3 fold.

“N5_11F4 (CTGGGGAGTCCT; chemistry not given here)”: the “Fold (induction of luciferase gene expression)” value in series [1] turned out to be 1230.1 fold. Same read-out and setting: in the case of “N5_11G4 (CTGGGGAGTCCT; chemistry not given here)” it was 931.9 fold; in that of “N5_11G11 (CTGGGGAGTCCT; chemistry not given here)”, 1186.4 fold; in that of “N5_12E5 (CTGGGGAGTCCT; chemistry not given here)”, 1898.6 fold. As for “N5_12F4 (CTGGGGAGTCCT; chemistry not given here)”, the “Fold (induction of luciferase gene expression)” value in series [1] was 2096.2 fold. Same read-out and setting: in the case of “N5_12F11 (CTGGGGAGTCCT; chemistry not given here)” it was 926.7 fold; in that of “N5_12F12 (CTGGGGAGTCCT; chemistry not given here)”, 1169.8 fold; in that of “N5_12G2 (CTGGGGAGTCCT; chemistry not given here)”, 1074.1 fold. Still for that read-out and setting: in the case of “N5_12G6 (CTGGGGAGTCCT; chemistry not given here)” it was 2750.8 fold. As to “N5_12G11 (CTGGGGAGTCCT; chemistry not given here)”, in series [1], the “Fold (induction of luciferase gene expression)” value stood at 1043.8 fold. Still for that read-out and setting: in the case of “N5_13C10 (CTGGGGAGTCCT; chemistry not given here)” it was 1144.6 fold. On the same count and under the same terms, the result for “N5_13D1 (CTGGGGAGTCCT; chemistry not given here)” reads 722.9 fold; that for “N5_13D5 (CTGGGGAGTCCT; chemistry not given here)”, 749.4 fold. Same read-out and setting: in the case of “N5_13E8 (CTGGGGAGTCCT; chemistry not given here)” it was 2096.6 fold; in that of “N5_13G5 (CTGGGGAGTCCT; chemistry not given here)”, 1198.5 fold; in that of “N5_13G10 (CTGGGGAGTCCT; chemistry not given here)”, 1604.0 fold. Turning to “N5_13G12 (CTGGGGAGTCCT; chemistry not given here)”, the “Fold (induction of luciferase gene expression)” value in series [1] turned out to be 1199.4 fold. Same read-out and setting: in the case of “N5_13H3 (CTGGGGAGTCCT; chemistry not given here)” it was 1288.5 fold. As to “N5_14B9 (CTGGGGAGTCCT; chemistry not given here)”, in series [1], the “Fold (induction of luciferase gene expression)” value was 897.5 fold.

Consider “N5_14B10 (CTGGGGAGTCCT; chemistry not given here)”, for which the “Fold (induction of luciferase gene expression)” value in series [1] was 1133.0 fold. Same read-out and setting: the result for “N5_14D10 (CTGGGGAGTCCT; chemistry not given here)” reads 950.5 fold; that for “N5_14G11 (CTGGGGAGTCCT; chemistry not given here)”, 1775.3 fold. Consider “N5_14H11 (CTGGGGAGTCCT; chemistry not given here)”, for which the “Fold (induction of luciferase gene expression)” value in series [1] came out at 918.4 fold.
